Values joined by “and” are separate entries in the source; they are usually repeats but may differ in a detail not shown here. Equal values may be shown once. Read-outs that look alike come from different tables or passages of the source.
System: L-carnitine dehydrogenase (EC 1.1.1.108) produced by Alcaligenes sp. No. 981 FERM BP-2570
Test: Km-value determination of L-carnitine dehydrogenase (diaphorase/NBT coupled reaction)
Type: biochemical
Excerpt: The L-carnitine dehydrogenase used in the composition for assay of L-carnitine according to the present invention can be an enzyme having reactivity on a substrate of L-carnitine together with a suitable coenzyme NAD or thio-NAD. Its suitability can be confirmed by using the said coenzyme and substrate. L-carnitine dehydrogenase produced by Alcaligenes sp. No. 981 (product of Toyo Jozo Co.) has a relative activity of approx. 15% when coenzyme thio-NAD is used, as compared to use of NAD.
Km-value for NAD is measured in various concentrations of NAD^* in a reaction mixture of:
100 mM Tris-HCl buffer (pH 9.0)
5U diaphorase (Toyo Jozo Co.)
0.025% NBT (Wako Pure Chem. Co.)
1% polyoxyethylene (20) sorbitan monooleate (80) (Wako Pure Chem. Co.) and
In the reaction mixture, 50 mM L-carnitine is replaced by 1 mM NAD , and the concentration of L-carnitine is varied to measure the Km-value of L-carnitine.
The results are as shown above.

NC(=O)c1ccc[n+]([C@@H]2O[C@H](COP(=O)([O-])OP(=O)(O)OC[C@H]3O[C@@H](n4cnc5c(N)ncnc54)[C@H](O)[C@@H]3O)[C@@H](O)[C@H]2O)c1 [NAD, nicotinamide adenine dinucleotide]
Km (NAD concentration varied, 50 mM L-carnitine, 100 mM Tris-HCl buffer (pH 9.0), diaphorase, NBT, read-out: Km-value (NAD)): 140 µM and 141 µM

C[N+](C)(C)C[C@H](O)CC(=O)[O-] [L-carnitine]
Km (L-carnitine concentration varied, 1 mM NAD, 100 mM Tris-HCl buffer (pH 9.0), diaphorase, NBT, read-out: Km-value (L-carnitine)): 9300 µM

NC(=S)c1ccc[n+]([C@@H]2O[C@H](COP(=O)([O-])OP(=O)(O)OC[C@H]3O[C@@H](n4cnc5c(N)ncnc54)[C@H](O)[C@@H]3O)[C@@H](O)[C@H]2O)c1 [thio-NAD, thionicotinamide adenine dinucleotide]
Km (coenzyme thio-NAD, under the same conditions as NAD, read-out: Km-value (thio-NAD)): 400 µM
